These compounds were tested against T1, NLRP3 inflammasome (Homo sapiens, UniProt Q96P20) (assay: IL-1β secretion assay (NLRP3 IC50) in LPS-primed, nigericin-activated THP-1 cells, HTRF). Conditions: monocytic THP-1 cells; LPS 10 ng/mL 3 h priming, then compound + nigericin 10 μM 2 h; relative IC50, 10 concentrations, geometric mean.
T1 construct: endogenous in cells; host or cells: THP-1 monocytic cells
Format: cell-based
Description: Monocytic THP-1 cells were maintained in RPMI 1640 media (Gibco 21875)+10% FBS, (Gibco 10500)+1% penicillin/streptomycin (Gibco 15140-122). Cells were then plated at 40,000 cells per well in 384-well cell culture plates (CoRNning 3542) and maintained with RPMI1640 (Gibco 11835)+5% FBS (Gibco 10500). Activation of the NLRP3 inflammasome requires both an NF-kB-dependent priming step and the addition of a NLRP3 activator. The priming step was induced by LPS (10 ng/mL, InvivoGen ref tlrl-3pelps) for 3 h at 37° C., then compound, in a 1:3 serial dilution series in DMSO (final concentration DMSO 0.1%), and the activator nigericin (Sigma Aldrich, ref: SML1779) 10 μM (final concentration) were added to the cells and co-incubated for 2 hours. 16 μL supernatant was removed, and IL-1β levels were monitored using an HTRF assay (Human IL1b Kits HTRF Cisbio ref: 62HILBPEH) according to manufacturers' instructions.
Data were expressed as percentage of inhibition (I %) as compared to a maximum signal control containing no small molecule (I %=0%) according to the formula: 1%=(1−((Sample−Min))/((Max−Min)))×100, where: • Sample: Signal obtained in the presence of each compound tested, • Max: Maximum signal in the absence of compound added, • Min: Minimum or background signal obtained in the absence of activation signal.
Relative IC50 (IC50 rel) were obtained from a dose response curve with 10 concentrations. Final IC50 rels are expressed as the geometric mean.
Relative IC50 values were estimated with Biost@t-SPEED v2.4 internal software based on SAS system using the 4-parameter logistic model according to Ratkovsky and Reedy (D. A. Ratkovsky, T. J. Reedy, Choosing near-linear parameters in the four parameters logistic model radioligands and related assays. Biometrics, 42 (1986), 575-582): Y=A+C/((1+exp(−B*(log(X)−M)))), where: • A: Lower asymptote (BOTTOM), • A+C: Upper asymptote (TOP), • M: the logarithm of the concentration estimated at the inflexion point (the logarithm of the relative IC50), • B: Slope at the inflexion point of the curve.

T1 sequence (Q96P20 whole entry): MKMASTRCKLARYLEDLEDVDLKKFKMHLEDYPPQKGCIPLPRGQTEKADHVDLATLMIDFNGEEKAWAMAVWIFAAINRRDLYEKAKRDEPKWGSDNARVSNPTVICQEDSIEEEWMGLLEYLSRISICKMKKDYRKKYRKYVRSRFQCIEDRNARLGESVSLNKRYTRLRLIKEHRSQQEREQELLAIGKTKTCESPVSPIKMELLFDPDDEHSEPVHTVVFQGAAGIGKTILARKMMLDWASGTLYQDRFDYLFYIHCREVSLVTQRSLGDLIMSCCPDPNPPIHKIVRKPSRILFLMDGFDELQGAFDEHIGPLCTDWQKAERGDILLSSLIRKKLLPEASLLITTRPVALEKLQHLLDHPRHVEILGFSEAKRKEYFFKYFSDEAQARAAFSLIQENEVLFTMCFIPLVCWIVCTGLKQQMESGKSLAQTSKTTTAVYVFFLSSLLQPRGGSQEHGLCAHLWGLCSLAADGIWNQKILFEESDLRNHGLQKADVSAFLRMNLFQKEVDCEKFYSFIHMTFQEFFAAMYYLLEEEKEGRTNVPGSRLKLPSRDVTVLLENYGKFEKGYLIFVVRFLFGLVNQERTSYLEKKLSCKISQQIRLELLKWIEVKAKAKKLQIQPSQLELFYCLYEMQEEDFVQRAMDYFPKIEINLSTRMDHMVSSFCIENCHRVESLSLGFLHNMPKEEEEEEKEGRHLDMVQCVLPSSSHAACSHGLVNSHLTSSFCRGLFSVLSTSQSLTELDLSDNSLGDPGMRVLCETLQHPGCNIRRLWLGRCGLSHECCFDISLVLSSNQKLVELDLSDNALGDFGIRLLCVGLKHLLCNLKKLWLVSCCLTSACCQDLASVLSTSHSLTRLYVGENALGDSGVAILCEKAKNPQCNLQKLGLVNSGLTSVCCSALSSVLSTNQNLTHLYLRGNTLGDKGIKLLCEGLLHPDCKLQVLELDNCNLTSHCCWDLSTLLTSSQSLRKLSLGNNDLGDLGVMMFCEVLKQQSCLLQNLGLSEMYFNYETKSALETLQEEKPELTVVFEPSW

Q: Which IC50 does the source give for `Cc1cc(Cl)cc(O)c1-c1ccc(N2CCO[C@H](CF)C2)nn1` [Example 339, 5-chloro-2-[6-[(2S)-2-(fluoromethyl)morpholin-4-yl]pyridazin-3-yl]-3-methyl-phenol] here?
A: The IC50 was 133 nM.

Q: How did the IC50 turn out when `Oc1cc(Cl)ccc1-c1ccc(N2CCO[C@@H]3CCN(CCF)C[C@@H]32)nn1` [Example 525, 2-[6-[(4aS,8aR)-6-(2-fluoroethyl)-3,4a,5,7,8,8a-hexahydro-2H-pyrido[4,3-b][1,4]oxazin-4-yl]pyridazin-3-yl]-5-chloro-phenol] was run?
A: Its IC50 is 631 nM.

Q: `Cc1cc(C)c(-c2ccc(N3CCCC4(COCCN4C)C3)nn2)c(O)c1` (centres unmarked) [Example 441, 3,5-dimethyl-2-[6-(1-methyl-4-oxa-1,8-diazaspiro[5.5]undecan-8-yl)pyridazin-3-yl]phenol] was tested. Which IC50 did it give?
A: Its IC50 is 4670 nM.

Q: Which IC50 does the source give for `CCN1CCO[C@@H]2CN(c3ccc(-c4c(C)cc(C)cc4O)nn3)C[C@H]21` [Example 168, 2-[6-[(4aR,7aR)-4-ethyl-2,3,4a,5,7,7a-hexahydropyrrolo[3,4-b][1,4]oxazin-6-yl]pyridazin-3-yl]-3,5-dimethylphenol] here?
A: Its IC50 is 3380 nM.

Q: With `Cc1cc(C)c(-c2ccc(N3CCC[C@H]4CCN(C)C[C@@H]43)nn2)c(O)c1` [Example 520, 2-[6-[(4aS,8aR)-7-methyl-2,3,4,4a,5,6,8,8a-octahydro-1,7-naphthyridin-1-yl]pyridazin-3-yl]-3,5-dimethyl-phenol] as the compound, how does the IC50 read?
A: Its IC50 is 55 nM.

Q: Which IC50 does the source give for `CC(=O)N1CCC[C@@H]2[C@H]1CCCN2c1ccc(-c2c(C)cc(C(F)(F)F)cc2O)nn1` [Example 462, 1-[(4aR,8aR)-5-[6-[2-hydroxy-6-methyl-4-(trifluoromethyl)phenyl]pyridazin-3-yl]-2,3,4,4a,6,7,8,8a-octahydro-1,5-naphthyridin-1-yl]ethanone] here?
A: Its IC50 is 251 nM.

Q: `OC[C@@H]1CN(c2ccc(-c3c(O)cccc3F)nn2)CCO1` [Example 44, 3-fluoro-2-[6-[(2S)-2-(hydroxymethyl)morpholin-4-yl]pyridazin-3-yl]phenol] was tested. Which IC50 did it give?
A: The IC50 was 862 nM.

Q: Which IC50 does the source give for `Cc1cc(N2CCO[C@H](CO)C2)nnc1-c1ccc(F)cc1O` [Example 93, 5-fluoro-2-[6-[(2S)-2-(hydroxymethyl)morpholin-4-yl]-4-methyl-pyridazin-3-yl]phenol] here?
A: The IC50 was 879 nM.

Q: How did the IC50 turn out when `Cc1cc(C)c(-c2ccc(N3CCC4(CC3)CC(O)C4)nn2)c(O)c1` [Example 3, 7-[6-(2-hydroxy-4,6-dimethyl-phenyl)pyridazin-3-yl]-7-azaspiro[3.5]nonan-2-ol] was run?
A: Its IC50 is 2030 nM.

Q: How did the IC50 turn out when `CCN1CC[C@H]2CCN(c3ccc(-c4c(C)cc(Cl)cc4O)nn3)[C@H]2C1` (single isomer, unassigned) [Example 496] was run?
A: The IC50 was 546 nM.

Q: Which IC50 does the source give for `CC(=O)N1C[C@H]2OCCN(c3ccc(-c4c(C)cc(C(F)(F)F)cc4O)nn3)[C@H]2C1` (single isomer, unassigned) [Example 352] here?
A: Its IC50 is 375 nM.

Q: Which IC50 does the source give for `CCN1CC2OCCN(c3ccc(-c4c(C)cc(C(F)(F)F)cc4O)nn3)C2C1` (racemic) [Example 376, 3-methyl-2-[6-[rac-(4aR,7aR)-6-ethyl-2,3,4a,5,7,7a-hexahydropyrrolo[3,4-b][1,4]oxazin-4-yl]pyridazin-3-yl]-5-(trifluoromethyl)phenol] here?
A: Its IC50 is 180 nM.

Q: For `CCc1cc(C(F)(F)F)cc(O)c1-c1ccc(N2CC[C@H]3CCN(C)C[C@H]32)nn1` (single isomer, unassigned) [Example 491], which IC50 is on record?
A: The IC50 was 185 nM.

Q: For `OC[C@@H]1CN(c2cc(C(F)F)c(-c3ccc4c(c3O)CCC4)nn2)CCO1` [Example 345, 5-[4-(difluoromethyl)-6-[(2S)-2-(hydroxymethyl)morpholin-4-yl]pyridazin-3-yl]indan-4-ol], which IC50 is on record?
A: The IC50 was 125 nM.

Q: For `Cc1cc(C(F)(F)F)cc(O)c1-c1ccc(N2CC[C@H](O)CC2=O)nn1` [Example 286, (4S)-4-hydroxy-1-[6-[2-hydroxy-6-methyl-4-(trifluoromethyl)phenyl]pyridazin-3-yl]piperidin-2-one], which IC50 is on record?
A: The IC50 was 151 nM.

Q: Which IC50 does the source give for `CCN1CC[C@H]2CCN(c3cc(C(F)F)c(-c4ccc(C)cc4O)nn3)[C@H]2C1` (single isomer, unassigned) [Example 490] here?
A: Its IC50 is 1 nM.

Q: With `Cc1cc(C)c(-c2ccc(N3CCOc4ccncc43)nn2)c(O)c1` [Example 362, 2-[6-(2,3-dihydropyrido[4,3-b][1,4]oxazin-4-yl)pyridazin-3-yl]-3,5-dimethyl-phenol] as the compound, how does the IC50 read?
A: The IC50 was 3540 nM.

Q: `Cc1cc(C(F)(F)F)cc(O)c1-c1ccc(N2CC[C@@H](CO)CC2=O)nn1` [Example 292, (4R)-4-(hydroxymethyl)-1-[6-[2-hydroxy-6-methyl-4-(trifluoromethyl)phenyl]pyridazin-3-yl]piperidin-2-one] was tested. Which IC50 did it give?
A: The IC50 was 265 nM.

Q: For `Cc1cc(C)c(-c2ccc(N3CCO[C@@H]4CCN(CC(F)(F)F)C[C@@H]43)nn2)c(O)c1` [Example 355, 2-[6-[(4aS,8aR)-6-(2,2,2-trifluoroethyl)-3,4a,5,7,8,8a-hexahydro-2H-pyrido[4,3-b][1,4]oxazin-4-yl]pyridazin-3-yl]-3,5-dimethyl-phenol], which IC50 is on record?
A: The IC50 was 1170 nM.

Q: How did the IC50 turn out when `CC(=O)N1CCC2OCCN(c3ccc(-c4c(C)cc(C(F)(F)F)cc4O)nn3)C2C1` (single isomer, unassigned) [Example 336] was run?
A: The IC50 was 1160 nM.

Q: Which IC50 does the source give for `Cc1cccc(O)c1-c1ccc(N2CCO[C@@H]3CCNC[C@@H]32)nn1` [Example 411, 2-[6-[(4aS,8aR)-2,3,4a,5,6,7,8,8a-octahydropyrido[4,3-b][1,4]oxazin-4-yl]pyridazin-3-yl]-3-methyl-phenol] here?
A: Its IC50 is 344 nM.

Q: `CC(=O)N1CC[C@@H]2OCCN(c3ccc(-c4c(C)cc(Cl)cc4O)nn3)[C@@H]2C1` (single isomer, unassigned) [Example 304] was tested. Which IC50 did it give?
A: The IC50 was 142 nM.

Q: Which IC50 does the source give for `Cc1cc(C)c(-c2ccc(N3CCO[C@@H]4C[C@@H](O)C[C@@H]43)nn2)c(O)c1` (single isomer, unassigned) [Example 466] here?
A: The IC50 was 100 nM.

Q: `Cc1cc(C(F)(F)F)cc(O)c1-c1ccc(N2CCOC(C(C)(C)O)C2)nn1` (single isomer, unassigned) [Example 52, 2-[6-[2-(1-hydroxy-1-methyl-ethyl)morpholin-4-yl]pyridazin-3-yl]-3-methyl-5-(trifluoromethyl)phenol] was tested. Which IC50 did it give?
A: Its IC50 is 1250 nM.

Q: How did the IC50 turn out when `Cc1cc(C)c(-c2ccc(N3CCOC4CCOCC43)nn2)c(O)c1` (racemic) [Example 421, 3,5-dimethyl-2-[6-[rac-(4aS,8aS)-3,4a,5,7,8,8a-hexahydro-2H-pyrano[4,3-b][1,4]oxazin-4-yl]pyridazin-3-yl]phenol] was run?
A: Its IC50 is 1230 nM.

Q: Which IC50 does the source give for `CCN1CC[C@H]2CCN(c3ccc(-c4c(C)cc(Cl)cc4O)nn3)[C@H]2C1` (single isomer, unassigned) [Example 497] here?
A: The IC50 was 0.4 nM.

Q: With `CCN1CC[C@H]2OCCN(c3cc(C(F)F)c(-c4ccc(Cl)cc4O)nn3)[C@H]2C1` [Example 456, 2-[6-[(4aS,8aR)-6-ethyl-3,4a,5,7,8,8a-hexahydro-2H-pyrido[4,3-b][1,4]oxazin-4-yl]-4-(difluoromethyl)pyridazin-3-yl]-5-chloro-phenol] as the compound, how does the IC50 read?
A: The IC50 was 2 nM.

Q: `Cc1cc(C)c(-c2ccc(N3CCO[C@@H]4CNC[C@H]43)nn2)c(O)c1` (racemic) [Example 190, 2-[6-[rac-(4aR,7aR)-3,4a,5,6,7,7a-hexahydro-2H-pyrrolo[3,4-b][1,4]oxazin-4-yl]pyridazin-3-yl]-3,5-dimethylphenol] was tested. Which IC50 did it give?
A: The IC50 was 1150 nM.

Q: `CCN1CC[C@@H]2CCN(c3cc(C(F)F)c(-c4ccc(C(F)(F)F)cc4O)nn3)[C@@H]2C1` (single isomer, unassigned) [Example 485] was tested. Which IC50 did it give?
A: The IC50 was 45 nM.

Q: Which IC50 does the source give for `Cc1cc(C)c(-c2ccc(N3CCO[C@@H]4CCNC[C@@H]43)nn2)c(O)c1` [Example 315, 2-[6-[(4aS,8aR)-2,3,4a,5,6,7,8,8a-octahydropyrido[4,3-b][1,4]oxazin-4-yl]pyridazin-3-yl]-3,5-dimethyl-phenol] here?
A: The IC50 was 511 nM.

Q: For `CCC(=O)C1CN(c2ccc(-c3c(C)cc(C)cc3O)nn2)CCO1` (single isomer, unassigned) [Example 156], which IC50 is on record?
A: Its IC50 is 1060 nM.

Q: `Cc1cc(C)c(-c2ccc(N3CCO[C@H]4C[C@H](O)C[C@H]43)nn2)c(O)c1` (single isomer, unassigned) [Example 467] was tested. Which IC50 did it give?
A: Its IC50 is 14 nM.

Q: With `Cc1cc(C)c(-c2ccc(N3CCO[C@H](C4(N)CC4)C3)nn2)c(O)c1` (single isomer, unassigned) [Example 135] as the compound, how does the IC50 read?
A: Its IC50 is 997 nM.

Q: For `CC(=O)N1CC[C@H]2CCN(c3cc(C(F)F)c(-c4ccc(C(F)(F)F)cc4O)nn3)[C@H]2C1` (single isomer, unassigned) [Example 511], which IC50 is on record?
A: The IC50 was 571 nM.

Q: `Cc1cccc(O)c1-c1ccc(N2CC[C@@H]3CCN(C)C[C@@H]32)nn1` (single isomer, unassigned) [Example 415] was tested. Which IC50 did it give?
A: The IC50 was 4660 nM.

— patent US20240360151A1 (SANOFI, priority 2023, published 2024)
